Measured values as given in PMC4492750, “The discovery of a selective and potent A2a agonist with extended lung retention” (Pharmacology Research & Perspectives, 2015).

Columns and labels:
[1] = tested on: LPS-induced BAL neutrophils; assay: LPS-induced lung inflammation model, neutrophils in BAL fluid; type: in vivo, rat; conditions: for Reduction of total cells and neutrophilia in BAL fluid: 10 μg/kg i.t.
Description: The efficacy of the compound on neutrophils in BAL fluid is expressed as per cent inhibition of the full window (negative veh/veh controls vs. the positive veh/LPS controls): Inhibition (%) of LPS-induced BAL neutrophils by compound 2 was calculated using the following formula: [drawing 1] where A is the average in the group administered with vehicle and challenged with LPS; B is the average in the group administered with vehicle and challenged with saline; and C is the average in the group administered with test compound and challenged with LPS.
Animals in all efficacy studies were dosed intratracheally as described above in a buffered saline vehicle (pH 5) containing sodium chloride (8.5mg/ml), citric acid (0.28mg/ml) and sodium citrate (0.5mg/ml). The compound was dissolved in saline when given intravenously (0.9% NaCl) to the swivelled rats.
[…] Each rat was given LPS from the Pseudomona Aeruginosa bacteria (1µg/rat, 5µg/ml saline, Sigma-Aldrich, Sweden).
24 hours after the LPS challenge, rats were anaesthetized and exsanguinated via a cardiac incision. A tube was inserted and ligated to the trachea. The tube was connected to a syringe with 4ml PBS (without Ca^2+/Mg^2+) and a lavage of the whole lung was performed manually. The BAL fluid was collected individually in polyethylene tubes and kept on ice until further processed.
The BAL fluid was centrifuged and the supernatant separated from the cell pellet that was resuspended in 1.0ml of PBS. The total number of cells and cell differentia was counted in an automated cell counter and haematology analyzer (SYSMEX XT-1800iV, software for the rat BALF).

[2] = tested on: LPS-induced TNFα production in human PBMC; assay: LPS-induced TNFα production in primary human PBMC (hTNFα PBMC); type: cell-based
Description: (§1) • Human A2a and A2b receptor pharmacology: Chinese hamster ovary CHO-K1 cells stably expressing human A2a and A2b receptors were used to determine substances agonistic potency and intrinsic activity. […] The signal corresponding to adenosine at 100 μmol/L was used to define 100% intrinsic activity. • Human A3 receptor pharmacology: A3 receptor Gi coupling was measured by GTPγ ^35[S] filter assay at serial dilutions of compound using membranes from Perkin-Elmer. The signal corresponding to the maximal response of NECA at 100 μmol/L was set to 100% intrinsic activity. • Lipopolysaccharide (LPS)-induced TNFα production in primary human peripheral blood mononuclear cells (hTNFα PBMC) and rat mononuclears (rTNFα splenocytes): Human PBMC and rat mononuclear spleen cells were incubated with serial dilutions of compound and stimulated with LPS.
Procedures and assays were run in R10 buffer (RPMI 1640 Medium supplemented with GlutaMAX™ and HEPES (GIBCO-BRL), 10% fetal calf serum, penicillin and streptomycin (each 5000IU/ml)). Human PBMC were purified from heparinised blood by Ficoll separation (Ficoll, Amersham Pharmacia Biotech AB, Cat: 17-1440-03, Lot: 312170) and rat mononuclear cells were collected after rat spleen perfusion. Both cell preparations were followed by hypotonic lysis of residual erythrocytes. Serial dilutions of compounds were pre-incubated with 200 000 cells/well (96-well plate) for 45min in 37 °C (190µl). Cells were stimulated by 10µl LPS (final concentration 0.5ng/ml human and 150ng/ml rat; SIGMA Cat: L-4516, Lot: 104K4036) for 18h at 37 °C. TNFα release was measured by ELISA (^TmR&D Systems plates) according to the manufacturer’s instructions in cell free supernatant.

A3 = target: T1, A3 (Homo sapiens, UniProt P0DMS8); assay: Selectivity panel of 98 targets in binding assays (Ricerca): A3; parameters: Ricerca (contract panel); conditions: 10 μmol/L of compound; data on AstraZeneca file
T1 sequence (P0DMS8 1-318): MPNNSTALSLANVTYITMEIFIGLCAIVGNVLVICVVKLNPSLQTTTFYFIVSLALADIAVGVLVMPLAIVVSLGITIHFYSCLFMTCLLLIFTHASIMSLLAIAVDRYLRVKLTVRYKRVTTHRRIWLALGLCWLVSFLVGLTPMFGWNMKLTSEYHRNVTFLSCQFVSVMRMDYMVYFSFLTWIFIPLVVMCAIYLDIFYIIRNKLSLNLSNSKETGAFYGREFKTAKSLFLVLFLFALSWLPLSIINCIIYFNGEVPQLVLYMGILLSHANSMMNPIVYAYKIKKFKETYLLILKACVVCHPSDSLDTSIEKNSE
Description: The medicinal chemistry synthetic optimization focused on the position C2 and N6 (Fig.2) with the aim to discover a compound with high A2a potency, high selectivity, low lipophilicity (logD), and high solubility. […] Selectivity of compound 2 was tested across 98 targets in binding assays (www.ricerca.com). The only identified significant hits (i.e., >50% effect at 10 μmol/L of compound 2) were A2a (∼100%) and A3 (∼84%) data on AstraZeneca file.

[3] = Lipophilicity (LogD), shake flask; type: physicochemical; conditions: 1-octanol / phosphate buffer, octanol-water, phosphate buffer pH 7.4
Description: as §1
The octanol-water partition coefficient (LogD) was measured using the shake flask method. 600µL of 1-octanol was added to a vial with 6µL of 10mM DMSO-solution of the test compound. 600µL of 10mM sodium phosphate buffer adjusted to pH 7.4 was added and equilibrium was performed by vigorous shaking for ten minutes with an Eppendorf mixer. The phases were separated by centrifugation. The samples were analysed by HPLC with UV-detection at 254nm.

CCNC(=O)[C@H]1O[C@@H](n2cnc3c(NC(CC)CC)nc(NCCNC(=O)Nc4cc[n+](C)cc4)nc32)[C@H](O)[C@@H]1O [Compound 2, (2S,3S,4R,5R)-N-ethyl-5-[6-(1-ethylpropylamino)-2-[2-[(1-methylpyridin-1-ium-4-yl)carbamoylamino]ethylamino]purin-9-yl]-3,4-dihydroxy-tetrahydrofuran-2-carboxamide]
Inhibition of recovered neutrophils in BAL fluid ([1]; 0.1 μg/kg i.t. single dose 24 h prior to LPS): 9%
Inhibition of recovered neutrophils in BAL fluid ([1]; 1 μg/kg i.t. single dose 24 h prior to LPS): 17%
Inhibition of recovered neutrophils in BAL fluid ([1]; 10 μg/kg i.t. for five consecutive days, LPS 24 h after last dose): 53%
Inhibition of recovered neutrophils in BAL fluid ([1]; 10 μg/kg i.t. for three consecutive days, LPS 24 h after last dose): 39%
Inhibition of recovered neutrophils in BAL fluid ([1]; 10 μg/kg i.t. single dose 24 h prior to LPS (n.s., P = 0.086)): 39%
Reduction of total cells and neutrophilia in BAL fluid ([1]; 36 and 24 h pre-treatment before LPS): significant reduction
Reduction of total cells and neutrophilia in BAL fluid ([1]; 12 h pretreatment before LPS): not significant
Maximum inhibition of neutrophil recruitment ([1]; single i.t. dose of 10 μg/kg, rodents, previous dose-response studies): 40–50%
EC50 ([2]; Homo sapiens, PBMC, read-out: EC50, inhibition of LPS stimulated TNFα release in human PBMC): 0.5 nM
IC50 ([2]; LPS-stimulated TNFα release, human PBMC, average (SD)): 0.5 nM
Emax ([2]; LPS-stimulated TNFα release, human PBMC, average (SD), read-out: Human TNFα PBMC Intrinsic activity): 72.4%
Effect in binding assay, A3 (A3): ~84%
logD at 10 min [3]: < -1
